Test results reported in PMC11520566, “Discovery of pyrazole-based analogs as CDK2 inhibitors with apoptotic-inducing activity: design, synthesis and molecular dynamics study” (RSC Advances, 2024).

Columns and labels:
T-47D = experiment: NCI 60 five dose assay, Breast cancer; format: cell-based, human
SK-MEL-5 = experiment: NCI 60 five dose assay, Melanoma; format: cell-based, human
HCC-2998 = experiment: NCI 60 five dose assay, Colon cancer; format: cell-based, human
OVCAR-3 = experiment: NCI 60 five dose assay, Ovarian cancer; format: cell-based, human
HCT-15 = experiment: NCI 60 five dose assay, Colon cancer; format: cell-based, human
NCI-H522 = experiment: NCI 60 five dose assay, Non-small cell lung cancer; format: cell-based, human
KM12 = experiment: NCI 60 five dose assay, Colon cancer; format: cell-based, human
CDK2/cyclin A2 = biological target: T1, CDK2/cyclin A2 (Homo sapiens, UniProt P24941); experiment: In vitro CDK2/cyclin A2 enzyme inhibition assay (ADP-Glo); format: biochemical
T1 construct: purchased Promega
Method: The studied pyrazoles 2a–g, 4, 7a–d, 8a and b, 9, and 10 were assessed for their in vitro CDK2/cyclin A2 enzyme inhibition assay at a concentration of 50 μM using the Promega CDK2/cyclinA2 kinase enzyme system coupled with the ADP-Glo assay.[32,33] The percentage enzyme activity was the lowest for five compounds, namely 4, 7a, 7d, 8a, and 9 with values of 24.7%, 17.5%, 11.5%, 27.1% and 14.5%, respectively.
The in vitro assay of CDK2/cyclin A2 protein kinase was carried out on all the synthesized compounds. The kinase assay was performed in a 96-well white plate with a reaction volume of […]. The reaction was performed in four steps as follows: 2.5 μL of the test compounds or 5% DMSO and 5 μL of CDK2/cyclin A2 enzyme (1.6 ng) was added, and then incubated at room temperature for 30 min. Then, 5 μL of 50 μM ATP. 0.1 μg μL^−1 histone H1 was added and incubated for 10 min. The reaction was stopped by adding 12.5 μL of ADP-Glo™ Reagent and incubated for 40 min. Then 25 μL of kinase detection reagent was added to each well and incubated for 60 min before detection with luminescence (Integration time 0.5–1 s).[25,32,33]

NCI-H460 = experiment: NCI 60 five dose assay, Non-small cell lung cancer; format: cell-based, human
COLO 205 = experiment: NCI 60 five dose assay, Colon cancer; format: cell-based, human
HCT-116 = experiment: NCI 60 five dose assay, Colon cancer; format: cell-based, human
NCI/ADR-RES = experiment: NCI 60 five dose assay, Ovarian cancer; format: cell-based, human
RXF 393 = experiment: NCI 60 five dose assay, Renal cancer; format: cell-based, human
EKVX = experiment: NCI 60 five dose assay, Non-small cell lung cancer; format: cell-based, human
BT-549 = experiment: NCI 60 five dose assay, Breast cancer; format: cell-based, human
[1] = Homo sapiens, read-out: LC50 (the source's name)

CC(=NNc1ccc(S(N)(=O)=O)cc1)c1ccc(NN=C2C(=O)NN=C2Nc2ccccc2)cc1 [Compound 4, 4-(2-(1-(4-(2-(5-oxo-3-(phenylamino)-1,5-dihydro-4H-pyrazol-4-ylidene)hydrazinyl)phenyl)ethylidene)hydrazinyl)benzene sulfonamide]
GI50 (T-47D; Homo sapiens, T47D): 2.22 µM | CC50 (T-47D; Homo sapiens, T47D, read-out: LC50 (the source's name)): 23.9 µM | Percent Growth (T-47D; Log10 Concentration -4.0 Molar): -88% | Percent Growth (T-47D; Log10 Concentration -5.0 Molar): -27% | Percent Growth (T-47D; Log10 Concentration -6.0 Molar): 91% | Percent Growth (T-47D; Log10 Concentration -7.0 Molar): 98% | Percent Growth (T-47D; Log10 Concentration -8.0 Molar): 90% | GI50 (SK-MEL-5; Homo sapiens): 3.32 µM | CC50 (SK-MEL-5; [1]): 35.8 µM | Percent Growth (SK-MEL-5; Log10 Concentration -4.0 Molar): -100% | Percent Growth (SK-MEL-5; Log10 Concentration -5.0 Molar): 12% | Percent Growth (SK-MEL-5; Log10 Concentration -6.0 Molar): 91% | Percent Growth (SK-MEL-5; Log10 Concentration -7.0 Molar): 100% | Percent Growth (SK-MEL-5; Log10 Concentration -8.0 Molar): 95% | GI50 (HCC-2998; Homo sapiens): 2.29 µM | CC50 (HCC-2998; [1]): 21.3 µM | Percent Growth (HCC-2998; Log10 Concentration -4.0 Molar): -100% | Percent Growth (HCC-2998; Log10 Concentration -5.0 Molar): -26% | Percent Growth (HCC-2998; Log10 Concentration -6.0 Molar): 93% | Percent Growth (HCC-2998; Log10 Concentration -7.0 Molar): 88% | Percent Growth (HCC-2998; Log10 Concentration -8.0 Molar): 80% | GI50 (OVCAR-3; Homo sapiens): 1.87 µM | CC50 (OVCAR-3; [1]): 12.5 µM | Percent Growth (OVCAR-3; Log10 Concentration -4.0 Molar): -100% | Percent Growth (OVCAR-3; Log10 Concentration -5.0 Molar): -45% | Percent Growth (OVCAR-3; Log10 Concentration -6.0 Molar): 86% | Percent Growth (OVCAR-3; Log10 Concentration -7.0 Molar): 89% | Percent Growth (OVCAR-3; Log10 Concentration -8.0 Molar): 82% | GI50 (HCT-15; Homo sapiens): 5.29 µM | CC50 (HCT-15; [1]): 42.9 µM | Percent Growth (HCT-15; Log10 Concentration -4.0 Molar): -100% | Percent Growth (HCT-15; Log10 Concentration -5.0 Molar): 36% | Percent Growth (HCT-15; Log10 Concentration -6.0 Molar): 87% | Percent Growth (HCT-15; Log10 Concentration -7.0 Molar): 98% | Percent Growth (HCT-15; Log10 Concentration -8.0 Molar): 99% | GI50 (NCI-H522; Homo sapiens): 2.17 µM | CC50 (NCI-H522; [1]): 74.8 µM | Percent Growth (NCI-H522; Log10 Concentration -4.0 Molar): -52% | Percent Growth (NCI-H522; Log10 Concentration -5.0 Molar): -36% | Percent Growth (NCI-H522; Log10 Concentration -6.0 Molar): 94% | Percent Growth (NCI-H522; Log10 Concentration -7.0 Molar): 97% | Percent Growth (NCI-H522; Log10 Concentration -8.0 Molar): 89% | GI50 (KM12; Homo sapiens): 2.66 µM | CC50 (KM12; [1]): 29.9 µM | Percent Growth (KM12; Log10 Concentration -4.0 Molar): -100% | Percent Growth (KM12; Log10 Concentration -5.0 Molar): -5% | Percent Growth (KM12; Log10 Concentration -6.0 Molar): 90% | Percent Growth (KM12; Log10 Concentration -7.0 Molar): 101% | Percent Growth (KM12; Log10 Concentration -8.0 Molar): 98% | percentage enzyme activity (CDK2/cyclin A2; at 50 μM): 24.7% | IC50 (CDK2/cyclin A2; n = 3, read-out: IC50 against CDK2/cyclin A2): 3.82 µM | Relative activity (CDK2/cyclin A2; supplement S1, DMSO = 100, screen at 50 μM): 24.7 | GI50 (NCI-H460; Homo sapiens): 3.21 µM | CC50 (NCI-H460; [1]): 45.3 µM | Percent Growth (NCI-H460; Log10 Concentration -4.0 Molar): -78% | Percent Growth (NCI-H460; Log10 Concentration -5.0 Molar): 4% | Percent Growth (NCI-H460; Log10 Concentration -6.0 Molar): 97% | Percent Growth (NCI-H460; Log10 Concentration -7.0 Molar): 103% | Percent Growth (NCI-H460; Log10 Concentration -8.0 Molar): 102% | GI50 (COLO 205; Homo sapiens): 3.28 µM | CC50 (COLO 205; [1]): 34.6 µM | Percent Growth (COLO 205; Log10 Concentration -4.0 Molar): -100% | Percent Growth (COLO 205; Log10 Concentration -5.0 Molar): 9% | Percent Growth (COLO 205; Log10 Concentration -6.0 Molar): 94% | Percent Growth (COLO 205; Log10 Concentration -7.0 Molar): 105% | Percent Growth (COLO 205; Log10 Concentration -8.0 Molar): 101% | GI50 (HCT-116; Homo sapiens): 3.04 µM | CC50 (HCT-116; [1]): 32 µM | Percent Growth (HCT-116; Log10 Concentration -4.0 Molar): -100% | Percent Growth (HCT-116; Log10 Concentration -5.0 Molar): 1% | Percent Growth (HCT-116; Log10 Concentration -6.0 Molar): 96% | Percent Growth (HCT-116; Log10 Concentration -7.0 Molar): 104% | Percent Growth (HCT-116; Log10 Concentration -8.0 Molar): 98% | GI50 (NCI/ADR-RES; Homo sapiens): > 100 µM | CC50 (NCI/ADR-RES; [1]): > 100 µM | Percent Growth (NCI/ADR-RES; Log10 Concentration -4.0 Molar): 65% | Percent Growth (NCI/ADR-RES; Log10 Concentration -5.0 Molar): 86% | Percent Growth (NCI/ADR-RES; Log10 Concentration -6.0 Molar): 96% | Percent Growth (NCI/ADR-RES; Log10 Concentration -7.0 Molar): 101% | Percent Growth (NCI/ADR-RES; Log10 Concentration -8.0 Molar): 97% | GI50 (RXF 393; Homo sapiens): 1.1 µM | CC50 (RXF 393; [1]): 21.1 µM | Percent Growth (RXF 393; Log10 Concentration -4.0 Molar): -76% | Percent Growth (RXF 393; Log10 Concentration -5.0 Molar): -37% | Percent Growth (RXF 393; Log10 Concentration -6.0 Molar): 54% | Percent Growth (RXF 393; Log10 Concentration -7.0 Molar): 99% | Percent Growth (RXF 393; Log10 Concentration -8.0 Molar): 103% | GI50 (EKVX; Homo sapiens): 5.39 µM | CC50 (EKVX; [1]): > 100 µM | Percent Growth (EKVX; Log10 Concentration -4.0 Molar): -48% | Percent Growth (EKVX; Log10 Concentration -5.0 Molar): 36% | Percent Growth (EKVX; Log10 Concentration -6.0 Molar): 89% | Percent Growth (EKVX; Log10 Concentration -7.0 Molar): 102% | Percent Growth (EKVX; Log10 Concentration -8.0 Molar): 98% | GI50 (BT-549; Homo sapiens): 2.83 µM | CC50 (BT-549; [1]): 31.1 µM | Percent Growth (BT-549; Log10 Concentration -4.0 Molar): -100% | Percent Growth (BT-549; Log10 Concentration -5.0 Molar): -1% | Percent Growth (BT-549; Log10 Concentration -6.0 Molar): 92% | Percent Growth (BT-549; Log10 Concentration -7.0 Molar): 105% | Percent Growth (BT-549; Log10 Concentration -8.0 Molar): 94%
